Measured values as given in patent publication US9724408B2, “Compositions and methods for activating stimulator of interferon gene-dependent signalling” (ADURO BIOTECH, INC., priority 2013, dated 2017).

Assays:
[1] = tested on: natural killer (NK) cells, CD4+ and CD8+ T cells; test: Surface CD69 upregulation on lymphocytes after subcutaneous CDN (FACS); assay type: in vivo, BALB/c mice; settings: 50, 5 and 0.5 μM in 100 μL, base of the tail, 24 hours, FIG. 11
Protocol: To determine the relative ability of the derivative molecules to activate immune responses, CDN compounds were administered to 6-8 week old female BALB/c mice (in a total volume of 100 μL in HBSS) at doses of 50, 5 and 0.5 μM by subcutaneous injection into the base of the tail. Mice were assessed 24 hours later for lymphocyte immune cell activation by fluorescent activated cell sorting (FACS) for upregulation of surface CD69 expression on natural killer (NK) cells, CD4+ and CD8+ T cells, as compared to IgG1 isotype controls.

B16 melanoma cells = test: B16 melanoma tumor model in STING-deficient mice, intratumoral CDN; assay type: in vivo, goldenticket STING−/− mice; settings: ML RR-CDG 25 μg, ML RR-CDA 50 μg, CpG 1668 50 μg, three injections, FIG. 20B
Protocol: To determine whether the effects of the derivative molecules are STING-dependent, B16 melanoma cells (5×10^4 cells in 100 μL PBS) were implanted on the right flanks of 6-8 week old female goldenticket STING^−/− mice, or wild-type C57BL/6 control mice (5 mice per group). Treatments began when tumors reached a volume of approximately 75 mm^3, on day 14 post tumor implantation. The compounds administered were Rp, Rp dithio cyclic [G(2′,5′)pG(3′,5′)p] (ML RR-CDG) (25 μg in a total volume of 40 μL HBSS), Rp, Rp dithio cyclic [A(2′,5′)pA(3′,5′)p] (ML RR-CDA) (50 μg in a total volume of 40 μL HBSS), the TLR9 agonist CpG 1668 (50 μg in a total volume of 40 μL HBSS), or HBSS vehicle control. Mice were treated by subcutaneous injection into the center of tumor only using a 27 gauge needle. Injections were repeated every three days, for a total of three intratumoral injections.

hSTING (Q) = test: IFNβ-LUC reporter in HEK293T cells expressing hSTING (Q); assay type: cell-based, human; settings: 10 μM, digitonin permeabilization, 6 hrs, FIG. 14
From the text: To determine the responsiveness of the five known natural human STING variants (referred to as WT, REF, HAQ, AQ and Q) to the native and derivative molecules, a panel of human embryonic kidney (HEK) 293T cell lines that expressed the human STING alleles was generated. […] MSCV2.2 plasmids encoding hSTING(REF)-GFP, hSTING(WT)-GFP, hSTING(HAQ)-GFP, hSTING(Q)-GFP and mSTING(WT)-GFP were obtained from the Vance Laboratory at UC Berkeley. hSTING(AQ)-GFP was derived from hSTING(Q)-GFP using a QuickChange Site-Directed Mutagenesis kit (Stratagene). The sequence of the hSTING(REF) allele is also known as the Barber allele (Ishikawa, H., and Barber, G. N. (2008). Nature 455, 674-678), and has the NCBI Reference Sequence NP_938023.1. The amino acid difference between hSTING(REF) and the other WT, HAQ, AQ and Q human STING alleles are shown in FIG. 13, which is adapted from Yi et al., Plos One 8: e77846 (2013). Stable HEK 293T-derived cell lines expressing each of the individual human STING alleles were generated by FACS sorting of GFP positive cells using a Mo Flo cell sorter at the Cancer Research Laboratory Flow Cytometry Facility at UC Berkeley. 1×10^4 HEK293T STING cells were seeded in 96-well plates and transiently transfected (using Lipofectamine 2000) with 50 ng of a human IFN-β reporter plasmid (pLuc-IFN-β) expressing the human IFN-β promoter upstream of a luciferase reporter and 10 ng of TK-renilla for normalization. 24 hours later, cells were stimulated with native and synthetic CDN derivative molecules using digitonin permeabalization to ensure uniform uptake. Each STING cell line was stimulated with 10 μM of cyclic [G(3′,5′)pA(3′,5′)p] (cGAMP), cyclic [G(2′,5′)pA(3′,5′)p] (ML-cGAMP), Rp, Rp dithio cyclic [G(2′,5′)pA(3′,5′)p] […] (CDA), Rp, Rp dithio cyclic [A(3′,5′)pA(3′,5′)p] (RR-CDA), cyclic [A(2′,5′)pA(3′,5′)p] (ML-CDA), Rp, Rp dithio cyclic [A(2′,5′)pA(3′,5′)p] (ML RR-CDA), cyclic [G(3′,5′)pG(3′,5′)p] (CDG), Rp, Rp dithio cyclic [G(3′,5′)pG(3′,5′)p] (RR-CDG), cyclic [G(2′,5′)pG(3′,5′)p] (ML-CDG) or Rp, Rp dithio cyclic [G(2′,5′)pG(3′,5′)p] (ML RR-CDG) in 25 ul digitonin buffer (50 mM HEPES, 100 mM KCL, 3 mM MgCl2, 0.1 mM DTT, 85 mM Sucrose, 0.2% BSA, 1 mM ATP, 0.1 mM GTP, 10 ug/ml digitonin). After 20 min, the stimulation mixtures were removed and 200 ul of standard RPMI media was added. After stimulation for 6 hrs, cell lysates were prepared and reporter gene activity measured using the Dual Luciferase Assay System (Promega) on a Spectramax M3 luminometer.

[2] = tested on: CT26 colon carcinoma cells; test: CT26 lung metastasis survival model, subcutaneous CDN; assay type: in vivo, BALB/c mice; settings: CT26 intravenous, 25 μg subcutaneous at base of the tail, day 1 and one week later, log-rank test, FIG. 19A
Protocol: To further assess the ability of the derivative molecules to promote anti-tumor immunity, CT26 colon carcinoma cells (2×10^5 cells in 100 μL PBS) were implanted by intravenous injection into 6-8 week old female BALB/c mice and assessed for overall survival. The CDN compounds (25 μg in a total volume of 100 μL HBSS) were administered one day post tumor implantation by subcutaneous injection into the base of the tail. Mice were boosted with an additional injection one week later for a total of two vaccinations.

| SMILES | immune cell activation (surface CD69 on NK, CD4+ and CD8+ T cells) [1] | tumor growth in STING−/− mice (B16 melanoma cells) | IFNβ reporter response of hSTING (Q) (hSTING (Q)) | survival rates [2] |
| --- | --- | --- | --- | --- |
| Nc1ncnc2c1ncn2[C@@H]1O[C@@H]2COP(O)(=S)O[C@@H]3C(O)[C@@H](COP(O)(=S)O[C@H]2[C@H]1O)O[C@H]3n1cnc2c(N)ncnc21 (some centres unmarked) [ML RR-CDA, dithio-[RP, RP]-cyclic-[A(2′,5′)pA(3′,5′)p]] | induced NK and T cell activation, although to a lesser extent than the ML RR-CDG molecule | not inhibited | responsive to stimulation | significantly higher survival rates compared to the cyclic [A(2′,5′)pA(3′,5′)p] (ML CDA) molecule |
| Nc1nc2c(ncn2[C@@H]2O[C@@H]3CO[P@@](O)(=S)O[C@@H]4[C@H](O)[C@@H](CO[P@@](O)(=S)O[C@H]3[C@H]2O)O[C@H]4n2cnc3c(=O)[nH]c(N)nc32)c(=O)[nH]1 [ML RR-CDG, dithio-[RP,RP]-cyclic-[G(2′,5′)pG(3′,5′)p]] | potent immune activation of NK and T cells in a dose-dependent manner | not inhibited | responsive to stimulation | significantly higher survival rates compared to the cyclic [G(2′,5′)pG(3′,5′)p] (ML CDG) molecule |
